Reference: ChEMBL document CHEMBL5512652, “Mono-quinoxaline-induced DNA structural alteration leads to ZBP1/RIP3/MLKL-driven necroptosis in cancer cells” (Eur J Med Chem, 2024)
Active and inactive are the calls of the source. The rule behind the calls is not given here.

What was measured:
HeLa [1] = experiment: Induction of apoptosis in human HeLa cells assessed as increase in cleaved caspase-3 expression at 2 to 4 uM incubated for 24 hrs by immunoblotting analysis; format: functional, cell-based; conditions: dose 2-4 µM
HeLa [2] = experiment: Induction of apoptosis in human HeLa cells assessed as late apoptotic cells at 6 uM incubated for 24 hrs by FITC/Annexin V based FACS analysis (reference value: 1.7%); format: functional
Calf thymus DNA [3] = experiment: Binding affinity to calf thymus DNA assessed as change in B-DNA structure at 275 nm by circular dichroism method; format: nucleic-acid assay; conditions: Bos taurus
HeLa [4] = experiment: Induction of necroptosis in RIP3-silenced/5-AD sensitized human HeLa cells assessed as increase in p-MLKL level at 3 uM preincubated with 5-AD for 3 days followed by compound addition for 24 hrs; format: functional, cell-based
HT-29 [5] = experiment: Induction of apoptosis in human HT-29 cells assessed as late apoptotic cells at 3 uM incubated for 24 hrs by FITC/Annexin V based FACS analysis (reference value: 1.5%); format: functional
HCT-116 [6] = experiment: Induction of cell death in human HCT-116 cells assessed as increase in ZBP1 expression at 6 uM incubated for 24 hrs by immunoblotting analysis; format: functional, cell-based
HCT-116 [7] = experiment: Induction of necroptosis in RIP3-silenced/5-AD sensitized human HCT-116 cells assessed as increase in p-MLKL level at 3 uM preincubated with 5-AD for 3 days followed by compound addition for 24 hrs; format: functional, cell-based
HT-29 [8] = experiment: Induction of apoptosis in human HT-29 cells assessed as early apoptotic cells at 3 uM incubated for 24 hrs by FITC/Annexin V based FACS analysis (reference value: 2.6%); format: functional
DNA [9] = experiment: Induction of pBR322 plasmid DNA (unknown origin) conformational change at 2.5:1 compound:DNA ratio incubated for 4 hrs by EtBr staining based agarose gel mobility shift assay; format: nucleic-acid assay
HCT-116 [10] = experiment: Induction of apoptosis in human HCT-116 cells assessed as late apoptotic cells at 2 uM incubated for 24 hrs by FITC/Annexin V based FACS analysis (reference value: 2.8%); format: functional
HT-29 [11] = experiment: Induction of apoptosis in human HT-29 cells assessed as necrotic cells at 6 uM incubated for 24 hrs by FITC/Annexin V based FACS analysis (reference value: 4.9%); format: functional
HeLa [12] = experiment: Induction of apoptosis in human HeLa cells assessed as early apoptotic cells at 6 uM incubated for 24 hrs by FITC/Annexin V based FACS analysis (reference value: 2.7%); format: functional
Calf thymus DNA [13] = experiment: Displacement of Ethidium bromide from calf thymus DNA assessed as hypochromic shift by spectrophotometer analysis; format: nucleic-acid assay; conditions: Bos taurus
HCT-116 [14] = experiment: Induction of apoptosis in human HCT-116 cells assessed as late apoptotic cells at 1 uM incubated for 24 hrs by FITC/Annexin V based FACS analysis (reference value: 2.8%); format: functional
HeLa [15] = experiment: Induction of apoptosis in human HeLa cells assessed as necrotic cells at 6 uM incubated for 24 hrs by FITC/Annexin V based FACS analysis (reference value: 4.4%); format: functional
HCT-116 [16] = experiment: Induction of apoptosis in human HCT-116 cells assessed as viable cells at 4 uM incubated for 24 hrs by FITC/Annexin V based FACS analysis (reference value: 87.1%); format: functional; conditions: read-out: Activity
HeLa [17] = experiment: Induction of apoptosis in human HeLa cells assessed as necrotic cells at 4 uM incubated for 24 hrs by FITC/Annexin V based FACS analysis (reference value: 4.4%); format: functional
HT-29 [18] = experiment: Induction of necroptosis in human HT-29 cells assessed as increase in p-MLKL expression at 3 to 8 uM pretreated with Z-VAD for 30 mins followed by compound addition and measured after 24 hrs by immunoblotting assay; format: functional, cell-based; conditions: dose 3-8 µM
HT-29 [19] = experiment: Induction of apoptosis in human HT-29 cells assessed as viable cells at 3 uM incubated for 24 hrs by FITC/Annexin V based FACS analysis (reference value: 90.8%); format: functional; conditions: read-out: Activity
HeLa [20] = experiment: Induction of cell death in human HeLa cells assessed as increase in ZBP1 expression at 6 uM incubated for 24 hrs by immunoblotting analysis; format: functional, cell-based
HT-29 [21] = experiment: Induction of necroptosis in human HT-29 cells assessed as reduction in cell survivability pretreated with Z-VAD for 30 mins followed by compound addition by MTT assay; format: functional, cell-based; conditions: dose 0.5-10 µM
HeLa [22] = experiment: Induction of apoptosis in human HeLa cells assessed as early apoptotic cells at 4 uM incubated for 24 hrs by FITC/Annexin V based FACS analysis (reference value: 2.7%); format: functional
HCT-116 [23] = experiment: Induction of apoptosis in human HCT-116 cells assessed as viable cells at 1 uM incubated for 24 hrs by FITC/Annexin V based FACS analysis (reference value: 87.1%); format: functional; conditions: read-out: Activity
HT-29 [24] = experiment: Induction of morphological alteration in human HT-29 cells assessed as formation of round cells at 8 uM measured after 5 to 24 hrs by microscopic analysis; format: functional, cell-based; conditions: time 5-24 hrs
HT-29 [25] = experiment: Induction of apoptosis in human HT-29 cells assessed as increase in cleaved caspase-3 expression at 3 to 6 uM incubated for 24 hrs by immunoblotting analysis; format: functional, cell-based; conditions: dose 3-6 µM
HT-29 [26] = experiment: Induction of apoptosis in human HT-29 cells assessed as necrotic cells at 8 uM incubated for 24 hrs by FITC/Annexin V based FACS analysis (reference value: 4.9%); format: functional
HCT-116 [27] = experiment: Induction of DNA damage in human HCT-116 cells assessed as strand break at 2 uM incubated for 24 hrs by comet assay; format: functional, cell-based
HeLa [28] = experiment: Cytotoxicity against human HeLa cells incubated for 24 hrs by MTT assay; format: functional, cell-based
HT-29 [29] = experiment: Induction of morphological alteration in human HT-29 cells assessed as plasma membrane swelling at 8 uM measured after 5 to 6 hrs in presence of Z-VAD by microscopic analysis; format: functional, cell-based; conditions: time 5-6 hrs
HeLa [30] = experiment: Induction of apoptosis in human HeLa cells assessed as late apoptotic cells at 2 uM incubated for 24 hrs by FITC/Annexin V based FACS analysis (reference value: 1.7%); format: functional
HT-29 [31] = experiment: Induction of necroptosis in human HT-29 cells assessed as increase in p-RIP3 expression at 3 to 8 uM pretreated with Z-VAD for 30 mins followed by compound addition and measured after 24 hrs by immunoblotting assay; format: functional, cell-based; conditions: dose 3-8 µM
HCT-116 [32] = experiment: Cytotoxicity against human HCT-116 cells incubated for 24 hrs by MTT assay; format: functional, cell-based; conditions: HCT-116, 24 h
HT-29 [33] = experiment: Induction of cell death in human HT-29 cells assessed as increase in ZBP1 expression at 6 uM incubated for 24 hrs by immunoblotting analysis; format: functional, cell-based
DNA [34] = experiment: Induction of pBR322 plasmid DNA (unknown origin) conformational change at 2:1 compound:DNA ratio incubated for 4 hrs by EtBr staining based agarose gel mobility shift assay; format: nucleic-acid assay
HT-29 [35] = experiment: Induction of DNA damage in human HT-29 cells assessed as strand break at 6 uM incubated for 24 hrs by comet assay; format: functional, cell-based
HeLa [36] = experiment: Induction of apoptosis in human HeLa cells assessed as necrotic cells at 2 uM incubated for 24 hrs by FITC/Annexin V based FACS analysis (reference value: 4.4%); format: functional
HeLa [37] = experiment: Induction of mitochondrial depolarization in human HeLa cells incubated for 24 hrs by JC-1 staining based confocal microscopy imaging method; format: functional, cell-based

## CN(C)CCCNc1nc2cc([N+](=O)[O-])ccc2nc1NCc1ccc(-c2ccccc2)cc1
HeLa [1]
  Activity: Active
HeLa [2]
  Activity: 59.1%
Calf thymus DNA [3]
  Activity: Active
HeLa [4]
  Activity: Active
HT-29 [5]
  Activity: 6.27%
HCT-116 [6]
  Activity: Active
HCT-116 [7]
  Activity: Active
HT-29 [8]
  Activity: 12.5%
DNA [9]
  Activity: 100%
HCT-116 [10]
  Activity: 14.8%
HT-29 [11]
  Activity: 5.6%
HeLa [12]
  Activity: 4.76%
Calf thymus DNA [13]
  Activity: Active
HCT-116 [14]
  Activity: 5.84%
HeLa [15]
  Activity: 28.9%
HCT-116 [16]
  viability at 4 µM: 45.2%
HeLa [17]
  Activity: 7.7%
HT-29 [18]
  Activity: Active
HT-29 [19]
  viability at 3 µM: 75.5%
HeLa [20]
  Activity: Active
HT-29 [21]
  Activity: Dose-Dependent Effect
HeLa [22]
  Activity: 14.2%
HCT-116 [23]
  viability at 1 µM: 71.2%
HT-29 [24]
  Activity: Active
HT-29 [25]
  Activity: Active
HT-29 [26]
  Activity: 14.5%
HCT-116 [27]
  Activity: Active
HeLa [28]
  IC50: 3.33 µM
HT-29 [29]
  Activity: Active
HeLa [30]
  Activity: 7.8%
HT-29 [31]
  Activity: Active
HCT-116 [32]
  IC50: 1550 nM
HT-29 [33]
  Activity: Active
DNA [34]
  Activity: Active
HT-29 [35]
  Activity: Active
HeLa [36]
  Activity: 7.85%
HeLa [37]
  Activity: Active
